Experimental data as given in patent US10040810B2, “Derivatives of bisacylphosphinic acid, their preparation and use as photoinitiators” (priority 2012, dated 2018).
Values after ≈ are worked out from the molar mass of the structure shown.

Experiment: Solubility in water
Format: physicochemical
Experimental: 50 mg of the photoinitiator of example 1 is added to 1 ml of distilled water and the suspension stirred at room temperature for 60 minutes. Non-dissolved material is filtered off, dried in vacuo and weighed. The solubility is approximately 5 mg/ml.

With `Cc1cc(C)c(C(=O)P(=O)(O)C(=O)c2c(C)cc(C)cc2C)c(C)c1` [Example 1, bis(2,4,6-trimethyl-benzoyl)-phosphinic acid] the solubility at 60 min (thermodynamic from solid, distilled water, room temperature, 60 minutes stirring) was about 5000 µg/mL (≈ 14 mM) and the “solubility in water (in words)” value (water, preparation of formulation 4c) was “low solubility”.
